Five compounds from US8846951B2 (AbbVie Inc., priority 2009, dated 2014) can be followed below.

“Also recorded” adds a separate entry of the source.

For data set [1], the target named is T1, 5HT2C receptors (Homo sapiens, UniProt P28335).
T1 sequence (P28335 33-458): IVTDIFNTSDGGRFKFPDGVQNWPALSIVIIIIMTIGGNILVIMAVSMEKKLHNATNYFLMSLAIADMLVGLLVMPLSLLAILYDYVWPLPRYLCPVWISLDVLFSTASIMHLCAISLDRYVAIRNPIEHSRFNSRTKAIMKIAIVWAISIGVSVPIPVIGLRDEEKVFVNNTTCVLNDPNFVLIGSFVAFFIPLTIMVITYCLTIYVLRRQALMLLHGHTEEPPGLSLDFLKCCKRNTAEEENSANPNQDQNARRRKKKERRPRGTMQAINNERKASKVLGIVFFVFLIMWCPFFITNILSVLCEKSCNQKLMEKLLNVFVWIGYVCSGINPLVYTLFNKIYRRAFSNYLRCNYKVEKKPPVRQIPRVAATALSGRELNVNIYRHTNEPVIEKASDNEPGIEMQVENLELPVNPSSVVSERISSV
Nature of the data set: Human 5-HT2C functional assay in CHO-K1 cells (96-well, calcium, FLIPR). It counts as cell-based. Further details: expressed in transfected cells. Particulars: 5-HT2c agonist activity, CHO-K1 cells stably transfected. On the procedure: (iv) Human 5-HT2C Functional Assay in CHO-K1 Cells
Functional activity was determined by testing the effect of the compounds on intracellular calcium levels in CHO-K1 cells stably transfected with the human 5-HT2C receptor. Cells were seeded into 96-well plates at 60,000 cells/well and grown overnight in tissue culture medium (UltraCHO™ (Lonza), containing 1% dFCS, 250 μg/mL Zeocin, 400 μg/mL Geneticin) at 37° C. and 5% CO2. Growth medium was replaced by medium without dFCS for overnight incubation. Cells were loaded with a fluorescent calcium-sensitive dye in the presence of probenicid according to the manufacturer's protocol (FLIPR Ca4 Assay kit, Molecular Devices). Serial compound dilutions (final concentrations 10^−10 to 10^−5 M) were added to the cells and the maximum calcium response was determined using a FLIPR instrument (Molecular Devices). Concentration-response curves were fitted using a four-parameter logistic equation (GraphPad Prism). The concentration at which the compound exerts half its maximal effect is named the ‘effective concentration 50’ or ‘EC50’ and is listed in Table 5.

The target in data set [2] is T2, h-5-HT6 receptor (Homo sapiens, UniProt P50406).
T2 construct: expressed in transfected cells; host or cells: HEK293 cells (membranes)
Briefly: Human 5-HT6 receptor radioligand binding assay (HEK293 membranes, [3H]-LSD). Particulars: HEK293 membranes expressing h-5-HT6 receptor, 1 nM [3H]-LSD; geometrical mean; read-out: Ki (5-HT6 Agonist Site Radioligand Binding). The method, then: (v) Human 5-HT6 Receptor Radioligand Binding Assay
Preparation of Membranes by Ultrasonic Treatment and Differential Centrifugation
Cells from stable clonal cell lines expressing the corresponding receptor (5-HT6) were washed with PBS (without Ca^++, Mg^++) and harvested in PBS with 0.02% EDTA. The cells were collected by centrifugation at 500 g for 10 minutes at 4° C., washed with PBS and centrifuged (500 g, 10 minutes at 4° C.). The pellets were stored at −80° C. until use. For membrane preparation, the thawed cell pellet was resuspended in ice-cold sucrose buffer (0.25 M sucrose, 10 mM HEPES (pH 7.4), 1 mM phenylmethylsulfonyl fluoride (PMSF) in DMSO, 5 μg/ml Pepstatin-A, 3 mM EDTA, 0.025% Bacitracin) and homogenized with a Branson Sonifier W-250 (Settings: Timer 4; Output Control 3; Duty Cycle constant; 2 to 3 cycles). Cell disruption was checked with the aid of a microscope. Remaining unbroken cells were pelleted at 1,000 g for 10 minutes at 4° C. The sucrose buffer supernatant was then centrifuged at 60,000 g for 1 hour at 4° C. (Beckman Ultracentrifuge XL 80). The pellet was resuspended in 30 mL of ice-cold Tris buffer (20 mM TRIS (pH 7.4), 5 μg/mL Pepstatin A, 0.1 mM PMSF, 3 mM EDTA) by pipetting through a 10 mL serological pipette and centrifuged for 1 hour at 4° C. at 60,000 g. A final resuspension was performed in a small volume of ice-cold Tris buffer (see above) by pressing through a serological pipette followed by ultrasonic treatment with a Branson Sonifier W-250 (Settings: Timer 1; Output Control 3; Duty Cycle constant; 1 cycle). Protein concentration was determined (BCA-Kit; Pierce) and aliquots stored at −80° C. or in liquid nitrogen for long-term storage.
Receptor Binding Experiments
All receptor binding experiments were carried out in the corresponding assay buffer in a total volume of 200 μL in the presence of various concentrations of test compound (10^−5 M to 10^−9 M, tenfold serial dilution, duplicate determinations). The assays were terminated by filtration on polyethylenimine (PEI 0.1% or 0.3%) presoaked Packard Unifilter Plates (GF/C or GF/B) with a Tomtec MachIII U 96 well-plate harvester. After the plates had been dried for 2 hours at 55° C. in a drying chamber scintillation cocktail (BetaPlate Scint; PerkinElmer) was added. Radioactivity was measured in a Microbeta Trilux two hours after the addition of the scintillation mixture.
5-HT6 Receptor Binding Assay
HEK293 cells stably expressing the h-5-HT6 receptor (NCBI Reference Sequence XM 001435) were cultured in RPMI1640 medium supplemented with 25 mM HEPES, 10% fetal calf serum and 1-2 mM glutamine. The membrane preparation was performed as described above. […] On the day of the assay, the membranes were thawed, diluted in assay buffer (50 mM Tris-HCl, 5 mM CaCl2, 0.1% ascorbic acid, 10 μM pargyline, pH 7.4) to a concentration of 8 μg protein/assay and homogenized by gentle vortexing. […] Non-specific binding was defined with 1 μM methiothepin. The binding reaction was carried out for 3.5 hours at room temperature. During the incubation, the plates were shaken on a plate shaker at 100 rpm and terminated by filtration on Packard Unifilter GF/C (0.1% PEI) plates, followed by 2 wash cycles with ice-cold 50 mM Tris-HCl, 5 mM CaCl2.
Data derived from liquid scintillation counting were analyzed by iterative non-linear regression analysis with the use of the Statistical Analysis System (SAS): a program similar to “LIGAND” as described by Munson and Rodbard (Anal. Biochem. 1980, 107, 220-239). Fitting was performed according to formulae described by Feldman (Anal. Biochem. 1972, 48, 317-338). IC50 and Ki values were expressed as geometrical mean.

Data set [3] addresses T3, 5HT2B receptors (Homo sapiens, UniProt P41595).
T3 construct: expressed in transfected cells; host or cells: CHO-K1 cells
Nature of the data set: Human 5-HT2B functional high throughput screening assay in CHO-K1 cells (calcium flux). It counts as cell-based. Particulars: for Emax: CHO-K1; for EC50: EC50, 5-HT2B agonist activity, CHO-K1 cells, calcium flux. The procedure, abridged:
(§1)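 Agonism was measured as FLIPR fluorescence increase (480/530 nm, 25° C) with Ca4 dye and 2.5 mM probenecid, in serum-starved CHO-K1 lines overexpressing human 5-HT2C or 5-HT2B. Six-point 1:10 dilutions from 10 μM (0.2% DMSO final) were fitted by 4-parameter logistics. Responses were normalised to serotonin to give EC50 and % Emax.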
(Calcium assays in cells follow changes in intracellular calcium, usually with a dye or a luminescent sensor.)

The target in data set [4] is T1, 5HT2C receptors. Nature of the data set: Human 5-HT2C functional high throughput screening assay in CHO-K1 cells (calcium flux). The format is cell-based. Set-up: expressed in transfected cells; host or cells: CHO-K1 cells. The settings on record: for Emax: CHO-K1, 5-HT2C, maximum functional response as percentage relative to the effect of serotonin; for EC50: EC50, 5-HT2C agonist activity, CHO-K1 cells, calcium flux. The method, boiled down: as §1

The test system of data set [5] is AMP- or PCP-induced hyperactivity. Nature of the data set: Psychostimulant (AMP or PCP)-induced hyperlocomotion in mice. Particulars: for spontaneous activity: after ip test compound, before psychostimulant; for AMP-induced hyperactivity: test compound ip 30 min before d-amphetamine 2.0 mg/kg sc. The format is in vivo, mouse. From the text: (x) Assessment of Effects on Psychostimulant-Induced Hyperlocomotion in Mice
In both humans and experimental animals amphetamine (AMP) profoundly affects motor activity, sensorimotor function, sleep, attention, aggressive and sexual behaviors, learning and memory, operant behaviors, appetite and food intake. In addition, amphetamine induces psychotic reactions in normal individuals and exacerbates symptoms of schizophrenia in patients. In experimental animals several distinct behaviors are considered to be correlates of amphetamine psychosis. For example, amphetamine-induced hyperactivity in rodents is believed to model the psychotic symptoms of schizophrenia. Reversal of these behaviors is used to predict potential antipsychotic activity of drugs in pre-clinical studies.
In humans, phencyclidine (PCP) is known to produce a syndrome of behavioral effects which have many characteristics in common with schizophrenia. Therefore, antagonism of PCP effects might be evidence for antipsychotic efficacy of a compound.
Male NMRI mice (5-week old, Janvier, France) or C57BL/6J mice (6-week old, Janvier, France) were group housed and allowed ad-libitum access to food and water. A 12 hour light/dark cycle was imposed with lights-on period between 0530 and 1730 hours. All testing occurred between 700 and 1300 hours. All procedures were approved by Abbott Institutional Animal Care and Use Committee (USA) or Animal Welfare Officer (Germany) and were conducted in accordance with the National Institutes of Health Guide for Care and Use of Laboratory Animals guidelines and applicable national laws in the facilities accredited by the Association for the Assessment and Accreditation of Laboratory Animal Care.
On the day of experiment, animals were brought from the animal facility into the experimental room and were allowed to acclimatize for at least 30 minutes. Animals were then placed in the test cages for a habituation period of 60 minutes. The animals were then injected ip with the test compound and returned to the test cage. 30 Minutes later the mice were injected with d-amphetamine (2.0 mg/kg, AMP, Sigma, #A5880, sc) or phencyclidine (2.0 mg/kg, PCP, Sigma, #P3029, sc) Sigma, and returned to the test cages for 90 minutes. Each treatment group consisted of 8-10 animals. The data was acquired by Cage rack Photobeam system (SDI, San Diego Instruments, CA). The analyzed data were: fine movements, ambulations and total movements (fine+ambulations). Data was subjected to one- or two-way distribution-free ANOVA followed by Dunnett's and Tukey's post hoc tests.

In data set [6] the target is T1, 5HT2C receptors. Nature of the data set: Human 5-HT2C functional assay in 1321N1 cells (intracellular calcium, FLIPR). The format is cell-based. Set-up: expressed in transfected cells; host or cells: 1321N1 cells. The settings on record: 5-HT2c agonist activity, maximum calcium response. The method, boiled down:
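Intracellular calcium (Fluo-4, FLIPR peak response) was measured in stably transfected human 5-HT2C 1321N1 cells after overnight serum-free culture. Compounds were applied at final 10^−10 to 10^−5 M either alone or together with 10^−9 M serotonin. Half-maximal effect concentration was derived by four-parameter logistic fitting.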

The target in data set [7] is T4, human serotonin 5-HT2c receptor (Homo sapiens, UniProt P28335).
T4 construct: expressed in transfected cells; host or cells: CHO cells (membrane homogenates)
T4 sequence (P28335 33-458): T1 sequence (P28335 33-458)
Nature of the data set: Human 5-HT2C receptor radioligand binding assay (agonist site, [125I]DOI). The settings on record: 5-HT2c agonist site; transfected CHO cell membranes; 0.2 nM [125I](±)DOI. The method, then: (i) Human 5-HT2C Receptor Radioligand Binding Assay
Affinity of compounds for the agonist site of the […], receptor in transfected CHO cells was determined in a radioligand binding assay essentially as described by Bryant, H. U., et al., Life Sciences (1996) 59(15), 1259-1268.

T3 sequence (P41595 whole entry): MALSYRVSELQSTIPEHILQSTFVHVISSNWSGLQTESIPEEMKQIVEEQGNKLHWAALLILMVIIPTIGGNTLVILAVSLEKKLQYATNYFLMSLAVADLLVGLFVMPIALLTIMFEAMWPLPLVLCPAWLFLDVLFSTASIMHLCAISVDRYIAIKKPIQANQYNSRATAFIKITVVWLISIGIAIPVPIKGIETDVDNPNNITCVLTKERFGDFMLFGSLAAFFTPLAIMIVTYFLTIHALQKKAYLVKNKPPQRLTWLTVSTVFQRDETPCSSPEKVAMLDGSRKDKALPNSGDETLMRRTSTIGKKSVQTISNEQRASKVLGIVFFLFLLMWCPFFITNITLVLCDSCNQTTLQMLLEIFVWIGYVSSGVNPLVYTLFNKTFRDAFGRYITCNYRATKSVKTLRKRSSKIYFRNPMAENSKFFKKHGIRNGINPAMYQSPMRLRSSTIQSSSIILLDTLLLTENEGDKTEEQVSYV
T2 sequence (P50406 whole entry): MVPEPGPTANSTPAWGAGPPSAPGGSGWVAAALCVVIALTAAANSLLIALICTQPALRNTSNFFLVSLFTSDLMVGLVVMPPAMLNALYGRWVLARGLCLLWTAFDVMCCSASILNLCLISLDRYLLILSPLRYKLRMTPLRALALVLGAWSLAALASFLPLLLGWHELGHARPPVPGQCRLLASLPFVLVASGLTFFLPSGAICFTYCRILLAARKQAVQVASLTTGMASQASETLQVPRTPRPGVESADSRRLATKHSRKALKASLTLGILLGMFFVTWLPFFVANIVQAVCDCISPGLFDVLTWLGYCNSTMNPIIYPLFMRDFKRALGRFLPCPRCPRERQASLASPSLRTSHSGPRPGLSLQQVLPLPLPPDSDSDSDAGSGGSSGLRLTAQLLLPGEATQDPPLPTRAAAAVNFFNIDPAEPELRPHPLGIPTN

For the compound `COc1ccc(CN2C[C@H]3CN(S(=O)(=O)c4cccc(F)c4)Cc4ccccc4[C@@H]3C2)cc1` (relative stereo) [Example 73, Trans-5-(3-fluorophenylsulfonyl)-2-(4-methoxybenzyl)-1,2,3,3a,4,5,6,10b-octahydrobenzo[c]pyrrolo[3,4-e]azepine], the half-maximal effective concentration (EC50) (in general, the concentration giving half of the maximal effect) in data set [1] was over 1000 nM. For the same compound, in data set [2], the inhibition constant Ki (in general, a measure of affinity in units of concentration, obtained from inhibition or displacement) was 14.3 nM.
Turning to `O=C1NC[C@H]2CNC[C@@H]2c2c(F)cc(F)cc21` [Example 106, (3aR,10bS)-8,10-Difluoro-1,2,3,3a,4,5-hexahydrobenzo[c]pyrrolo[3,4-e]azepin-6(10bH)-one], in data set [3], the maximal effect (Emax) (as a rule, the size of the effect at its maximum, as opposed to the concentration needed) amounted to 95% and the 50% effective concentration (EC50) turned out to be 100 nM. In data set [4], the Emax was over 120% and the EC50 worked out at 0.4 nM. In addition, in data set [5], the spontaneous activity entry was “without affecting spontaneous activity” and the AMP-induced hyperactivity result is “modestly attenuated AMP-induced hyperactivity in mice in a dose dependent manner; also recorded: attenuating the affect of d-amphetamine (AMP)”.
On to `CN1C[C@H]2CNC[C@@H]2c2ccc(F)cc2C1=O` [Example 225, (3aR,10bS)-8-Fluoro-5-methyl-1,2,3,3a,4,5-hexahydrobenzo[c]pyrrolo[3,4-e]azepin-6(10bH)-one], for which, in data set [3], the maximal response (Emax) came to 110% and the EC50 was determined as 2000 nM. In data set [4], the Emax was over 120% and the concentration for a half-maximal effect (EC50) was 20 nM. Further, in data set [5], the spontaneous activity entry is given as “without affecting spontaneous activity” and the AMP-induced hyperactivity result was “modestly attenuated AMP-induced hyperactivity in mice; also recorded: attenuating the affect of d-amphetamine (AMP)”.
As for `O=S(=O)(c1cccc(F)c1)N1Cc2ccccc2[C@@H]2CN(Cc3ccc(F)cc3)C[C@H]2C1` (relative stereo) [Example 74, Trans-2-(4-fluorobenzyl)-5-(3-fluorophenylsulfonyl)-1,2,3,3a,4,5,6,10b-octahydrobenzo[c]pyrrolo[3,4-e]azepine], in data set [1], the EC50 was over 10000 nM. Further, the inhibition constant (Ki) in data set [2] worked out at 9.81 nM.
As for `O=C1NC[C@H]2CNC[C@@H]2c2ccccc21` [Example 44, (3aR,10bS)-1,2,3,3a,4,5-Hexahydrobenzo[c]pyrrolo[3,4-e]azepin-6(10bH)-one], the concentration for a half-maximal effect (EC50) in data set [6] came out at 3.02 nM; in data set [3] it was 500 nM; in data set [4], 1 nM. In addition, the maximum response (Emax) in data set [3] and in data set [4] was 100% throughout. Besides, affinity in data set [7] was put at a Ki of 9.5 nM. Moreover, in data set [5], the spontaneous activity result was “without affecting spontaneous activity”. Besides, the PCP-induced hyperactivity entry in data set [5] (test compound ip 30 min before PCP 2.0 mg/kg sc) is “attenuated PCP-induced hyperactivity in mice significantly and in a dose dependent manner; also recorded: attenuating the affect of phencyclidine (PCP)”.
